# What was measured:
# Assay type in all cases: cell-based, Saccharomyces cerevisiae
# AH22 strain [1] = assay: Antifungal compound sensitivity test, control yeast AH22 strain (Example 19); details: 30° C. 24.8 hours, relative value in percentage
# Experimental: (§1) The transformed budding yeast AH22-RsOS1 prepared in Example 18 was cultured while shaking at 30° C. for 18 hours in a Glu-Leu medium. As a control, the AH22 strain was similarly cultured while shaking at 30° C. for 18 hours in a Glu medium. The absorbance at 600 nm of each grown transformed budding yeast in a cell suspension was measured, and cell suspension diluted with sterilized distilled water to the absorbance of 0.1 was prepared. Further, a cell suspension in which the aforementioned cell suspension of the transformed budding yeast AH22-RsOS1 was diluted 50-fold with a Glu-Leu medium, and a cell suspension in which the aforementioned cell suspension of the AH22 strain was diluted 50-fold with a Glu medium were prepared.
# (§2) A solution in which each of Compounds (1) to (5) was dissolved in dimethylsulfoxide (DMSO) to the concentration of 600 ppm, and a solution in which Compounds (6) and (7) was dissolved in dimethylsulfoxide (DMSO) to the concentration of 60 ppm were prepared, and two microplates were prepared in which each 1.0 μL per well of the Compound solution and DMSO as a control were dispensed. In one microplate among them, each 100 μL of cell suspensions of the transformed budding yeast AH22-RsOS1 which had been prepared by dilution as described above was dispensed, and cultured by allowing to stand at 30° C. for 29.8 hours. In another microplate, each 100 μL of cell suspensions of the control yeast AH22 strain which had been prepared by dilution as described above was dispensed, and cultured by allowing to stand at 30° C. for 24.8 hours. After culturing, the absorbance at 600 nm of each well was measured with a microplate reader.
# (§3) A degree of growth of the transformed budding yeast is expressed as a relative value in percentage, letting the absorbance at 600 nm at the concentration of the Compound of 0 ppm to be 100. It was confirmed that an inhibiting degree of growth of the transformed budding yeast TM182-RsOS1 by each test substance was grater than an inhibiting degree of growth of the transformed budding yeast AH22-RsOS1 by each test substance, and the transformed budding yeast TM182-RsOS1 was a transformed cell with the enhanced sensitivity to an antifungal compound as compared with the transformed budding yeast AH22-RsOS1.
# AH22 = assay: Antifungal compound sensitivity test, control yeast AH22 (Example 6, Table 2); details: absorbance at 600 nm relative to 0 ppm = 100
# Source text: Degrees of growths of both of the transformed budding yeasts cultured under the presence of Compounds (1) to (7) and budding yeast as a control therefor are shown in Table 2. Degrees of growths of both of the transformed budding yeasts and budding yeast as a control are expressed by a relative value in percentage, letting the absorbance at 600 nm at the concentration of the Compound of 0 ppm to be 100. It was confirmed that an inhibiting degree of growth of the transformed budding yeast TM182-BcOS1-I 365S by each test substance was grater than an inhibiting degree of growth of the transformed budding yeast AH22-BcOS1-I 365S by each test substance, and the transformed budding yeast TM182-BcOS1-I365S was a transformed cell with the enhanced sensitivity to an antifungal compound as compared with the transformed budding yeast AH22-BcOS1-I365S.
# AH22 strain [2] = assay: Antifungal compound sensitivity test, control yeast AH22 strain (Example 16); details: 30° C. 24.5 hours, relative value in percentage
# Experimental: as §1, with “yeast AH22-StOS1” for “yeast AH22-RsOS1”, “Example 15” for “Example 18”
# as §2, with “(1) to (3) was dissolved in dimethylsulfoxide (DMSO) to the concentration of 6 ppm, a solution in which each of Compounds (4) and (5) was” for “(1) to (5) was”, “concentration of 2000 ppm, and” for “concentration of 600 ppm, and”, “concentration of 20 ppm were” for “concentration of 60 ppm were”, “budding yeast AH22-StOS1 which had” for “budding yeast AH22-RsOS1 which had”, “C. for 28 hours. In” for “C. for 29.8 hours. In”, “C. for 24.5 hours. After” for “C. for 24.8 hours. After”
# as §3, with “TM182-StOS1” for “TM182-RsOS1”, “AH22-StOS1” for “AH22-RsOS1”, “AH22-StOS1.” for “AH22-RsOS1.”
Compound,Degree of growth of budding yeast AH22 Glu medium (AH22 strain [1]; final concentration 6.0 ppm) [%],Degree of growth of budding yeast (%) AH22 Glu medium (AH22; final concentration 6 ppm) [%],Degree of growth of budding yeast AH22 Glu medium (AH22 strain [2]; final concentration 0.6 ppm) [%],Degree of growth of budding yeast (%) AH22 Glu medium (AH22; final concentration 20 ppm) [%],Degree of growth of budding yeast AH22 Glu medium (AH22 strain [2]; final concentration 20 ppm) [%],Degree of growth of budding yeast AH22 Glu medium (AH22 strain [1]; final concentration 0.6 ppm) [%],Degree of growth of budding yeast (%) AH22 Glu medium (AH22; final concentration 0.2 ppm) [%],Degree of growth of budding yeast AH22 Glu medium (AH22 strain [2]; final concentration 0.2 ppm) [%]
"CC12CC1(C)C(=O)N(c1cc(Cl)cc(Cl)c1)C2=O (stereo not drawn) [Compound (1), Procymidone]",88,88,99,,,,,
"CC(C)NC(=O)N1CC(=O)N(c2cc(Cl)cc(Cl)c2)C1=O [Compound (2), Iprodione]",92,91,94,,,,,
"C=CC1(C)OC(=O)N(c2cc(Cl)cc(Cl)c2)C1=O (stereo not drawn) [Compound (3), Vinclozolin]",82,87,96,,,,,
"O=[N+]([O-])c1c(Cl)c(Cl)c(Cl)c(Cl)c1Cl [Compound (4), Quintozene]",83,,,96,96,,,
"COP(=S)(OC)Oc1c(Cl)cc(C)cc1Cl [Compound (5), Tolclofos-methyl]",78,,,80,80,,,
"N#Cc1c[nH]cc1-c1cccc2c1OC(F)(F)O2 [Compound (6), Fludioxonil]",,,,,,79,92,92
"N#Cc1c[nH]cc1-c1cccc(Cl)c1Cl [Compound (7), Fenpiclonil]",,,,,,85,91,91
